From PubChem BioAssay AID1963965 (Molecular Pharmacology Branch, DTP, NCI, 2024)

Test system: 996289-038-R-J1-PDC spheroid viability
Experiment: Anticancer human tumor 996289-038-R-J1-PDC patient-derived colon adenocarcinoma cell line growth inhibition [PI3K]
Settings: spheroids with HUVEC and MSC; for IC50: curve of first compound; for viability, T/C: stronger effect = lower value
Description: Combinatorial screen of targeted agents with the PI3K inhibitors inavolisib, alpelisib, duvelisib, and copanlisib in multi-cell type tumor spheroids
A high-throughput screen of multi-cell type tumor spheroids was designed to identify active combinations of targeted small molecules and PI3K pathway inhibitors. Complex spheroids include a stromal component modeled by human endothelial cells (HUVEC) and fibroblasts modeled by human mesenchymal stem cells (MSCs). The concentration ranges selected for each drug and investigational agent were based upon clinically achievable concentrations if the clinical Cmax of the agent was known.
Compounds. The drugs and investigational agents: inavolisib (NSC800729), alpelisib (NSC765974), duvelisib (NSC772469), copanlisib (NSC816437), ipatasertib (NSC767898), afuresertib (NSC778305), talazoparib (NSC767125), sapanisertib (NSC764658), selumetinib (NSC741078), tovorafenib (DAY101, NSC766906), vemurafenib (NSC761431), ravoxertinib (NSC781343), sotorasib (NSC818433), MRTX1133 (NSC 836407), abemaciclib (NSC 768073), palbociclib (NSC758247), venetoclax (NSC 766270), SY5609 (NSC837396), enzalutamide (NSC755605), and darolutamide (NSC825331), were obtained from the National Cancer Institute (NCI) Developmental Therapeutics Program Chemical Repository. The FDA-approved anticancer drug set is available from the NCI Developmental Therapeutics Program. […] The stock solutions were prepared in dimethyl sulfoxide (DMSO, Sigma-Aldrich, St. Louis, MO, cat. D2650) at 800-fold the tested concentration and stored at -70 degrees C prior to their use. All drugs and investigational agents were tested over a range starting from a high concentration at or near the clinical Cmax and decreasing in half-log increments. If the clinical Cmax for an agent had not been determined, the highest concentration tested was 10 microM.
Cell Culture. All cells were maintained in an incubator at 37 degrees C and 5% CO2 with 95% humidity. The PDC lines were cultured according to standard operating procedures established by the NCI PDMR (https://pdmr.cancer.gov/sops/default.htm). All PDCs were thawed and cultured in Matrigel-coated flasks prepared with a working solution of 1X Ham's F-12 nutrient mix, without supplementation (Invitrogen, Waltham, MA, cat. 11765054), 100 U/mL penicillin-streptomycin (Invitrogen, cat. 15140122), and 2.5% Matrigel (Corning Inc., Corning, NY, cat. 354248) for the first three passages. The 354836-022-R-J1-PDC, 475296-252-R-J1-PDC, and 997726-040-R-J2-PDC lines were cultured in 6A media, which includes advanced DMEM/F-12 (Thermo Fisher Scientific, cat. 12634028), 10 mM HEPES (Thermo Fisher Scientific, cat. 15630080), 1X GlutaMAX supplement (Thermo Fisher Scientific, cat. 35050061), 0.1 mg/mL primocin (InvivoGen, San Diego, CA, cat. ant-pm-2), 10% defined fetal bovine serum, heat inactivated (HyClone Laboratories Inc., Logan, UT, cat. SH30070.03HI), 50% L-WRN conditioned media (ATCC, cat. CRL-3276), 1.25 mM N-Acetyl-L-cysteine (Sigma-Aldrich, cat. A9165), 10 mM nicotinamide (Sigma-Aldrich, cat. N0636), 1X B-27 supplement (Thermo Fisher Scientific, cat. 17504044), 1X N-2 supplement (Thermo Fisher Scientific, cat. 17502048), and 10 microM Y-27632 dihydrochloride (Tocris Bioscience, Bristol, United Kingdom, cat. 1254). The 624824-186-R-J2-PDC line was cultured in 6C/Colon 1B media, which includes all 6A media components plus 50 ng/mL human EGF recombinant protein (Thermo Fisher Scientific, cat. PHG0311). […]
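Note: spheroids exposed to compounds for seven days before viability read.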
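Throughout, for viability, T/C: luminescence used as a proxy for viable cell amount; percent viability relative to DMSO vehicle control as 100%.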

Work on `Cn1cnc2c(F)c(Nc3ccc(Br)cc3Cl)c(C(=O)NOCCO)cc21` + Cc1nc(NC(=O)N2CCCC2C(N)=O)sc1-c1ccnc(C(C)(C)C(F)(F)F)c1 yielded an IC50 (second compound 0.0316 µM) of 148 nM, an IC50 (second compound 0.1 µM) of 114 nM and an IC50 (second compound 0.316 µM) of 59.4 nM. The IC50 (second compound 1 µM) was 24.8 nM, the IC50 (second compound 3.16 µM) was 13.5 nM and the IC50 (second compound 10 µM) was under 9.49 nM. The viability, T/C (second compound 0.0316 µM, first compound 0.00949 µM) was 73%, the viability, T/C (second compound 0.0316 µM, first compound 0.03 µM) was 64.4% and the viability, T/C (second compound 0.0316 µM, first compound 0.0949 µM) was 54.4%. For the same molecule, the viability, T/C (second compound 0.0316 µM, first compound 0.3 µM) was 42.5%, the viability, T/C (second compound 0.0316 µM, first compound 0.949 µM) was 33.8% and the viability, T/C (second compound 0.0316 µM, first compound 3 µM) was 23.6%. It also gave a viability, T/C (second compound 0.1 µM, first compound 0.00949 µM) of 76.7%, a viability, T/C (second compound 0.1 µM, first compound 0.03 µM) of 70.4% and a viability, T/C (second compound 0.1 µM, first compound 0.0949 µM) of 48.6%. For the same molecule, the viability, T/C (second compound 0.1 µM, first compound 0.3 µM) was 38.6%, the viability, T/C (second compound 0.1 µM, first compound 0.949 µM) was 30.4% and the viability, T/C (second compound 0.1 µM, first compound 3 µM) was 20.5%. It also gave a viability, T/C (second compound 0.316 µM, first compound 0.00949 µM) of 76.2%, a viability, T/C (second compound 0.316 µM, first compound 0.03 µM) of 60.6% and a viability, T/C (second compound 0.316 µM, first compound 0.0949 µM) of 41.9%. The viability, T/C (second compound 0.316 µM, first compound 0.3 µM) was 32%, the viability, T/C (second compound 0.316 µM, first compound 0.949 µM) was 26.5% and the viability, T/C (second compound 0.316 µM, first compound 3 µM) was 20.1%. It also gave a viability, T/C (second compound 1 µM, first compound 0.00949 µM) of 58.2%, a viability, T/C (second compound 1 µM, first compound 0.03 µM) of 50.5% and a viability, T/C (second compound 1 µM, first compound 0.0949 µM) of 35.3%. For the same molecule, the viability, T/C (second compound 1 µM, first compound 0.3 µM) was 29.4%, the viability, T/C (second compound 1 µM, first compound 0.949 µM) was 22.1% and the viability, T/C (second compound 1 µM, first compound 3 µM) was 14.8%. For the same molecule, the viability, T/C (second compound 3.16 µM, first compound 0.00949 µM) was 55.3%, the viability, T/C (second compound 3.16 µM, first compound 0.03 µM) was 39.1% and the viability, T/C (second compound 3.16 µM, first compound 0.0949 µM) was 30.1%. It also gave a viability, T/C (second compound 3.16 µM, first compound 0.3 µM) of 22.2%, a viability, T/C (second compound 3.16 µM, first compound 0.949 µM) of 16.8% and a viability, T/C (second compound 3.16 µM, first compound 3 µM) of 8.81%. For the same molecule, the viability, T/C (second compound 10 µM, first compound 0.00949 µM) was 31.3%, the viability, T/C (second compound 10 µM, first compound 0.03 µM) was 24.8% and the viability, T/C (second compound 10 µM, first compound 0.0949 µM) was 19.1%. The viability, T/C (second compound 10 µM, first compound 0.3 µM) was 14%, the viability, T/C (second compound 10 µM, first compound 0.949 µM) was 9.2% and the viability, T/C (second compound 10 µM, first compound 3 µM) was 5.22%.
